Results on one compound are retold here after ChEMBL document CHEMBL5247617, “4-Arylthiosemicarbazide derivatives - Pharmacokinetics, toxicity and anti-Toxoplasma gondii activity in vivo” (Eur J Med Chem, 2022).

Each structure is given as a SMILES string. Active and inactive are the calls of the source. The rule behind the calls is not given here.

The nature of series [1]: Toxicity in BALB/c mouse assessed as hydropic degeneration at 20 mg/kg, po administered for 5 days and measured after 1 day by hematoxylin-eosin staining based microscopic analysis. The class given is organism-based. Conditions: in vivo, 120 h, time 5 day.
Series [2] deals with Toxoplasma gondii. Briefly: Antiparasitic activity against Toxoplasma gondii RH infected in BALB/c mouse assessed as reduction in number of bradyzoite gene copies in muscles at 20 mg/kg, po administered every 24 hrs for 5 days starting from 24 hrs post infection by real-time qPCR analysis. The class given is functional. Conditions: time 5 day.
Series [3] can be described thus: Toxicity in BALB/c mouse assessed as increase in liver weight at 20 mg/kg, po administered for 5 days and measured after 1 day. It is filed as organism-based. To be noted: in vivo, 120 h, time 5 day.
Series [4] in a line: Toxicity in BALB/c mouse assessed as increase in serum ALT level at 20 mg/kg, po administered for 5 days and measured on day 1 and day 14 by ELISA method. Conditions: in vivo, 120 h, time 5 day. The class given is organism-based.
The test system of series [5] is Toxoplasma gondii. Put plainly: Antiparasitic activity against Toxoplasma gondii RH infected in BALB/c mouse assessed as reduction of bradyzoite gene copies in brain at 20 mg/kg, po administered every 24 hrs for 5 days starting from 24 hrs post infection by real-time qPCR analysis. It is filed as functional, organism-based. Conditions: time 5.0 day. In general terms: Real-time PCR tracks product formation cycle by cycle.

Series [6] is described as follows: Toxicity in BALB/c mouse assessed as changes in liver weight at 20 mg/kg, po administered for 5 days and measured after 14 days. To be noted: in vivo, 120 h, time 5 day. The class given is organism-based.
For series [7], the system named is Toxoplasma gondii. Briefly: Antiparasitic activity against Toxoplasma gondii DX infected in C3H/HeOuJ mouse assessed as prolongation of survival at 20 mg/kg, po administered every 24 hrs for 5 days starting from 24 hrs post infection by Kaplan-Meier method. It is filed as functional, organism-based. To be noted: time 5.0 day.
Series [8] deals with Toxoplasma gondii. Briefly: Antiparasitic activity against Toxoplasma gondii RH infected in BALB/c mouse assessed as decrease in IFNgamma level in serum at 20 mg/kg, po administered every 24 hrs for 5 days starting from 24 hrs post infection by ELISA method. It is filed as functional, organism-based. Conditions: time 5.0 day.
A short description of series [9]: Toxicity in BALB/c mouse assessed as increase in serum AST level at 20 mg/kg, po administered for 5 days and measured on day 1 and day 14 by ELISA method. It is filed as organism-based. To be noted: in vivo, 120 h, time 5 day. On the technique in general: An ELISA detects its analyte on a solid surface through an enzyme-linked reagent.
Series [10] in a line: Toxicity in BALB/c mouse assessed as increase in creatinine level at 20 mg/kg, po administered for 5 days and measured after 1 day by colorimetric assay. It is filed as organism-based. Conditions: in vivo, 120 h, time 5 day.
Series [11] concerns Toxoplasma gondii. Briefly: Antiparasitic activity against Toxoplasma gondii RH infected in BALB/c mouse assessed as prolongation of animal survival at 20 mg/kg, po administered every 24 hrs for 5 days starting from 24 hrs post infection by Kaplan-Meier method. It is filed as functional, organism-based. To be noted: time 5.0 day.

Regarding `COc1cc(Cc2cnc(N)nc2N)cc(OC)c1OC` [TRIMETHOPRIM], the Activity entry in series [1] was “Toxic”; with Toxoplasma gondii [2] it was 36; in series [3], “Toxic”; in series [4] it was “Non-Toxic”; in [6], “Non-Toxic”; in [9], “Non-Toxic”. For the same compound, the Activity entry in [10] is given as “Toxic”. For the same compound, the outcome in the series with Toxoplasma gondii [5], in the series on Toxoplasma gondii [7] and with Toxoplasma gondii [11] was Active. For the same compound, the result in the series with Toxoplasma gondii [8] was inactive.
